Measured values as given in paper PMC5679629, “Flavin-containing monooxygenase 3 (FMO3) role in busulphan metabolic pathway” (PLoS ONE, 2017).

Assays:
[1] = system: pooled human liver microsomes (HLM); test: THT disappearance on incubation with pooled human liver microsomes, with heat-inactivation of FMO3 or carbon monoxide inactivation of CYPs; type: in vitro ADME
Method: THT (Sigma-Aldrich, Stockholm, Sweden) was received as a liquid solution and stock solutions were prepared daily and diluted in 50mM potassium phosphate buffer pH 7.4.
Linearity of the reactions with time, enzyme and THT concentrations was determined before measuring apparent enzyme kinetic constants; pooled human liver microsomes (HLM) (Cypex, Dundee, UK) were incubated at different enzyme concentrations with a range of THT concentrations (10–500μM).
Time curves were performed by incubating microsomes in 50mM potassium phosphate buffer (pH 7.4) in a total volume of 200μL. The reaction was started by the addition of NADPH (Sigma-Aldrich, St. Louis, USA) to a final concentration of 1mM and terminated by adding one volume of ice cold dicholormethane (Fluka, Seeze, Germany).
The relative contribution of CYPs and FMO3 in the metabolism of THT was studied by heat-inactivation of FMO3 in some incubations and, in other incubations, CYP enzymes in HLM were inactivated by carbon monoxide (AGA Gas, Enköping, Sweden) bubbling.
(§1) Incubations were performed in triplicate and negative controls (excluding NADPH, microsomes, THT or by terminating the incubations before the addition of NADPH) were run in parallel.
To measure THT and the secondary metabolite, sulfolane, the reactions were terminated by adding dichloromethane. Samples (180μL) were added to 10μM nicotine (20μL, Merck, Hoherbrunn, Germany), used as an internal standard, before extraction. The matrix was extracted by liquid-liquid extraction with dichloromethane (equal volumes, 200μL) after 30 sec of high speed vortexing. After extraction and centrifugation at 16000 g for 10 min, the organic phase was transferred into GC-MS tubes. […] Samples (180μL) were added to 10 μM of 3-methylsulfolane (20μL, TCI, Tokyo, Japan), used as an internal standard. […]
(§2) Concentrations of THT and its metabolites were measured using GC-MS [18] after validation for use with microsomal incubations according to the international guidelines.

[2] = Busulphan kinetics in mice (alone, after PTU pretreatment, or with high-dose THT); settings: mice injected with Bu and PTU
Method: Male C57BL/6N mice (6–8 weeks old) were purchased from Charles River (Cologne, Germany). The mice were allowed to acclimatize to the surroundings for 2 weeks with a 12h dark/12h light cycle and randomized for treatment. Standard laboratory chow and water ad libitum was introduced.
To study Bu and THT kinetics, Bu (Sigma-Aldrich, Steinheim, Germany) was administered i.p. (25mg/kg or 100μmol/kg) as a 2mM solution in DMSO (Sigma-Aldrich, Stockholm, Sweden) [21]. THT was also prepared as a 2mM solution in DMSO and the dose given was equimolar to the Bu treatment (i.e. 100μmol/kg or 8.8 mg/kg). Upon injection, samples were diluted with physiological NaCl solution to a final DMSO concentration of 10% in the dosing solution. At the appropriate time points (10min, 30min, 1h, 2h, 4h, 6h and 8h), mice (three mice at each time point) were anesthetized using 2% isoflurane and the blood samples were collected by heart puncture. Mice were euthanized by cervical dislocation. Plasma was separated and stored at -20°C.
PTU (3mg/kg) was dissolved in DMSO and diluted with physiological NaCl solution and then injected into the mice once daily followed by Bu or THT injections on the 4th day. The mice were euthanized and plasma samples prepared as in the previous experiment.
To detect the effect of high THT concentrations on Bu metabolism, a third group of mice was injected with both Bu (100μmol/kg) and a high dose of THT (17.6mg/kg or 200μmol/kg) and samples prepared as described previously. All experiments including negative controls (mice injected with 10% DMSO in NaCl solution) and mice injected with PTU alone were performed in triplicates.
To quantify Bu, samples were extracted according to the method reported previously by Hassan et al. [24]. Briefly, 500 μL of plasma were diluted with 500 μL of water. Fifty microliters of the internal standard (1,5-bis(methanesulfonoxy)pentane; 38.5 μM) were added, followed by the addition of 1 mL of sodium iodide (8M, Merck, Darmstadt, Germany) and 400μL of n-heptane (Merck, Darmstadt, Germany). The tubes were placed under magnetic stirring in a water bath (70°C) for 45 min. During the reaction, busulphan and 1,5-bis(methanesulfonoxy)pentane were converted to 1,4-diiodobutane and 1,5-diiodopentane respectively and subsequently extracted with n-heptane [25]. The conversion of busulphan and 1,5-bis(methanesulfonoxy)pentane to 1,4-diiodobutane and 1,5-diiodopentane was over 90% [24]. The organic phase was analyzed by GC-MS [18]. THT was quantified as described previously and the method was validated for use with mouse plasma before measuring both Bu and THT [19, 20].
Kinetic parameters from in vivo studies were estimated using WinNonLin software (standard edition, version 2.0), while Microsoft Excel and SigmaPlot software (version 12.5, Systat software, Inc.) were utilized for in vitro kinetics.

CYP2C8 = biological target: T1, CYP2C8 (Homo sapiens, UniProt P10632); test: THT disappearance with recombinant cDNA-expressed enzyme microsomes; type: in vitro ADME; settings: 25μM THT, 35pmol CYP/mL
T1 construct: purchased BD Biosciences; host or cells: baculovirus infected insect cells
T1 sequence (P10632 1-490): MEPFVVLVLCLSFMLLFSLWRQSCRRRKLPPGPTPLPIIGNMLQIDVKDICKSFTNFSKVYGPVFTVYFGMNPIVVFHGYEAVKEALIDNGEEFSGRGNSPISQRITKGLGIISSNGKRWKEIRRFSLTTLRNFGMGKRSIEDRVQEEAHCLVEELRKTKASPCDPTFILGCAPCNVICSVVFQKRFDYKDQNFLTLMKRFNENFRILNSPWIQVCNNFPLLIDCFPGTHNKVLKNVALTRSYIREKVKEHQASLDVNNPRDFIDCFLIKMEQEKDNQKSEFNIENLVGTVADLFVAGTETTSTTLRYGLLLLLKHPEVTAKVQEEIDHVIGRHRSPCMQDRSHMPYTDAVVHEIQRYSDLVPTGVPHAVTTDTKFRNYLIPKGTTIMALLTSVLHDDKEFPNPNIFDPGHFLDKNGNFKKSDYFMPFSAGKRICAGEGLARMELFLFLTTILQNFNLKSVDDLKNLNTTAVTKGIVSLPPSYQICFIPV
Method: To identify the enzymes involved in Bu metabolism, 11 microsomal batches (BD Biosciences, Stockholm, Sweden), each containing a separate cDNA-expressed enzyme, were incubated with 25μM THT. The microsomes contained FMO3, CYP1A1, CYP1A2, CYP2B6, CYP2C8, CYP2C9, CYP2C19, CYP2D6, CYP2E1, CYP3A4 or CYP4A11. Time curves (0, 5, 15, 30 and 60min) were performed at a concentration of 0.35mg protein /mL for FMO3 and 35pmol CYP/mL for the CYP enzymes. The recombinant enzymes were produced from human cDNA expressing each of them using baculovirus expression system. Baculovirus infected insect cells were used to prepare these microsomes.
as §1
To measure THT and the secondary metabolite, sulfolane, the reactions were terminated by adding dichloromethane. Samples (180μL) were added to 10μM nicotine (20μL, Merck, Hoherbrunn, Germany), used as an internal standard, before extraction. The matrix was extracted by liquid-liquid extraction with dichloromethane (equal volumes, 200μL) after 30 sec of high speed vortexing. After extraction and centrifugation at 16000 g for 10 min, the organic phase was transferred into GC-MS tubes. […] Samples (180μL) were added to 10 μM of 3-methylsulfolane (20μL, TCI, Tokyo, Japan), used as an internal standard. The matrix was lyophilized (< 1 mbar at 40°C under N2 stream) to dryness, the residue was dissolved in 10 μL water and 200 μL of ethyl acetate was added for extraction. Samples were vortexed for 30 sec at high speed and centrifuged at 16000 g for 10 min. The organic phase was transferred to GC-MS tubes.
as §2

Compound: C1CCSC1 [THT, tetrahydrothiophene]
- THT disappearance on incubation with HLM [1]: rapid THT disappearance
- reduction of THT disappearance by CYP inhibition by carbon monoxide [1]: 9%
- reduction of THT disappearance by inactivation of FMO3 (heat treatment) ([1]; within 60 min): 44%
- THT concentrations versus Bu alone [2]: significantly (P<0.05, t-test) increased
- v0 (CYP2C8): 2.45 nmol/min/mL
- v0/CYP (CYP2C8): 0.07 nmol/min/pmol CYP
